According to ChEMBL document CHEMBL1201862, “PubChem BioAssay data set” (2004):
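Briefly, cells in 96-well plates were exposed to five compound concentrations for 48 h, and endpoints were estimated by linear interpolation. At the GI50, growth is halved.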 Active and inactive are the calls of the source. No stated cut-off is given here; in the data, active = GI50 up to about 1.1 µM and inactive = higher.

Key:
Assay in all cases: NCI tumour cell line growth inhibition, 48 h
UO-31 = tested on: UO-31
CCRF-CEM = tested on: CCRF-CEM
T47D = tested on: T47D
RPMI-8226 = tested on: RPMI-8226
DU-145 = tested on: DU-145
SN12C = tested on: SN12C
NCI-H460 = tested on: NCI-H460
SK-OV-3 = tested on: SK-OV-3
CAKI-1 = tested on: CAKI-1
HOP-92 = tested on: HOP-92
OVCAR-5 = tested on: OVCAR-5
HCC 2998 = tested on: HCC 2998
ACHN = tested on: ACHN
HOP-62 = tested on: HOP-62
KM12 = tested on: KM12
COLO 205 = tested on: COLO 205
SNB-19 = tested on: SNB-19
SK-MEL-2 = tested on: SK-MEL-2
UACC-62 = tested on: UACC-62
SNB-75 = tested on: SNB-75

Compound | GI50 (UO-31) | GI50 (CCRF-CEM) | GI50 (T47D) | GI50 (RPMI-8226) | GI50 (DU-145) | GI50 (SN12C) | GI50 (NCI-H460) | GI50 (SK-OV-3) | GI50 (CAKI-1) | GI50 (HOP-92) | GI50 (OVCAR-5) | GI50 (HCC 2998) | GI50 (ACHN) | GI50 (HOP-62) | GI50 (KM12) | GI50 (COLO 205) | GI50 (SNB-19) | GI50 (SK-MEL-2) | GI50 (UACC-62) | GI50 (SNB-75)
O=C1CSC(c2cccc(Cl)c2)N1c1ccc(-c2ccc(-n3c(-c4ccccc4)nc4ccccc4c3=O)cc2)cc1 (stereo not drawn) | 21.6 µM (inactive) | 29.9 µM (inactive) | 24.3 µM (inactive) | 42.8 µM (inactive) | 53.7 µM (inactive) | 62.4 µM (inactive) | 32.9 µM (inactive) | > 100 µM (inactive) | > 100 µM (inactive) | 17.1 µM (inactive) | 64.6 µM (inactive) | 15.1 µM (inactive) | 45.8 µM (inactive) | 67.8 µM (inactive) | 22.3 µM (inactive) | 34.6 µM (inactive) | > 100 µM (inactive) | 25.2 µM (inactive) | 31.4 µM (inactive) | –
O=C(CCc1ccc(O)c(O)c1)NCCc1ccccc1 | 10.2 µM (inactive) | 3.17 µM (inactive) | 34.4 µM (inactive) | 6.1 µM (inactive) | > 88.1 µM (inactive) | > 31.6 µM (inactive) | > 91.2 µM (inactive) | 65.8 µM (inactive) | 6.49 µM (inactive) | 48.3 µM (inactive) | > 100 µM (inactive) | > 100 µM (inactive) | 22 µM (inactive) | > 100 µM (inactive) | 49.9 µM (inactive) | 23.1 µM (inactive) | > 74.5 µM (inactive) | 32.7 µM (inactive) | 24.5 µM (inactive) | > 48 µM (inactive)
COc1cccc2c1C(=O)c1c(O)c3c(c(O)c1C2=O)C[C@@](O)(/C(C)=N/NC(=O)c1ccccc1)C[C@@H]3OC1CC(N)C(O)C(C)O1 (stereo partly drawn) | 1.77 µM (inactive) | 0.0592 µM (active) | 0.159 µM (active) | 0.137 µM (active) | 0.135 µM (active) | 0.155 µM (active) | 0.0355 µM (active) | 0.583 µM (active) | 0.141 µM (active) | 0.114 µM (active) | 0.643 µM (active) | 0.481 µM (active) | 0.0802 µM (active) | 0.122 µM (active) | 0.392 µM (active) | 0.474 µM (active) | 0.179 µM (active) | 0.505 µM (active) | 0.242 µM (active) | 0.373 µM (active)
COc1cc(OC)cc(-n2c(N)c(-c3nc4ccccc4n3C)c3ccc([N+](=O)[O-])cc3c2=O)c1 | > 100 µM (inactive) | – | > 100 µM (inactive) | > 100 µM (inactive) | > 100 µM (inactive) | 94.4 µM (inactive) | > 100 µM (inactive) | – | > 100 µM (inactive) | 18.6 µM (inactive) | – | > 100 µM (inactive) | 83.4 µM (inactive) | – | 35.6 µM (inactive) | > 100 µM (inactive) | 40.6 µM (inactive) | > 100 µM (inactive) | > 100 µM (inactive) | 2.02 µM (inactive)
C/C(=N\N=C1/C(=O)OC(c2ccccc2)=C1C(=O)c1ccccc1)c1ccc([N+](=O)[O-])cc1 | 44.7 µM (inactive) | 25.6 µM (inactive) | 42.9 µM (inactive) | 21.5 µM (inactive) | 44.4 µM (inactive) | 49.4 µM (inactive) | 56.1 µM (inactive) | 85.3 µM (inactive) | 48.2 µM (inactive) | 20.5 µM (inactive) | 72.3 µM (inactive) | 47.9 µM (inactive) | 42.6 µM (inactive) | > 100 µM (inactive) | 86.3 µM (inactive) | 52.2 µM (inactive) | > 100 µM (inactive) | > 100 µM (inactive) | 38.9 µM (inactive) | –
Cc1cc(C)nc(SCCc2cccc[n+]2C)n1 | > 100 µM (inactive) | > 100 µM (inactive) | > 100 µM (inactive) | > 100 µM (inactive) | > 100 µM (inactive) | > 100 µM (inactive) | > 100 µM (inactive) | > 100 µM (inactive) | > 100 µM (inactive) | > 100 µM (inactive) | 36.1 µM (inactive) | > 100 µM (inactive) | > 100 µM (inactive) | > 100 µM (inactive) | > 100 µM (inactive) | > 100 µM (inactive) | > 100 µM (inactive) | – | > 100 µM (inactive) | > 100 µM (inactive)
CON(C)C(=O)CNC(=O)OCC1c2ccccc2-c2ccccc21 | 63.2 µM (inactive) | 44.1 µM (inactive) | 68.4 µM (inactive) | 36.2 µM (inactive) | > 100 µM (inactive) | > 100 µM (inactive) | > 100 µM (inactive) | > 100 µM (inactive) | – | 93.1 µM (inactive) | > 100 µM (inactive) | > 100 µM (inactive) | > 100 µM (inactive) | > 100 µM (inactive) | > 100 µM (inactive) | > 100 µM (inactive) | > 100 µM (inactive) | > 100 µM (inactive) | > 100 µM (inactive) | > 100 µM (inactive)
CCCCc1ccc(N2C(=O)c3cc(C)cnc3S2(=O)=O)cc1 | > 100 µM (inactive) | – | > 100 µM (inactive) | > 100 µM (inactive) | > 100 µM (inactive) | > 100 µM (inactive) | > 100 µM (inactive) | 63.2 µM (inactive) | – | > 100 µM (inactive) | > 100 µM (inactive) | > 100 µM (inactive) | > 100 µM (inactive) | 85.7 µM (inactive) | > 100 µM (inactive) | > 100 µM (inactive) | > 100 µM (inactive) | > 100 µM (inactive) | – | 59.2 µM (inactive)
CSC(SC)(C(=O)O)c1cc(-c2c(Cl)cccc2Cl)no1 | 25.1 µM (inactive) | 26.4 µM (inactive) | 28.4 µM (inactive) | 16.3 µM (inactive) | > 100 µM (inactive) | 62.1 µM (inactive) | 34.9 µM (inactive) | > 100 µM (inactive) | 48.4 µM (inactive) | 98.9 µM (inactive) | 60.1 µM (inactive) | – | 46.9 µM (inactive) | 87.5 µM (inactive) | – | 34.4 µM (inactive) | > 100 µM (inactive) | 26.3 µM (inactive) | 27.9 µM (inactive) | 33 µM (inactive)
Cc1ccc(C2=Nc3c(N)nc(N)nc3NC(c3ccccc3)C2)cc1 (stereo not drawn) | 12.6 µM (inactive) | 7.41 µM (inactive) | 12.6 µM (inactive) | 7.01 µM (inactive) | 14.8 µM (inactive) | 11.4 µM (inactive) | 12.4 µM (inactive) | 13.9 µM (inactive) | 10.5 µM (inactive) | 10.3 µM (inactive) | 16.4 µM (inactive) | 7.41 µM (inactive) | 15.1 µM (inactive) | 12.5 µM (inactive) | – | – | 13.4 µM (inactive) | – | 10.3 µM (inactive) | 15.2 µM (inactive)
Cc1cc(S(=O)(=O)n2ccnc2Oc2ccccc2)c(SSc2cc(Cl)c(C)cc2S(=O)(=O)n2ccnc2Oc2ccccc2)cc1Cl | > 100 µM (inactive) | – | > 100 µM (inactive) | > 100 µM (inactive) | 74.1 µM (inactive) | 85.5 µM (inactive) | > 100 µM (inactive) | > 100 µM (inactive) | > 100 µM (inactive) | > 100 µM (inactive) | > 100 µM (inactive) | > 100 µM (inactive) | – | – | > 100 µM (inactive) | > 100 µM (inactive) | > 100 µM (inactive) | > 100 µM (inactive) | > 100 µM (inactive) | 1.01 µM (active)
CCOC(=O)/C=C/c1cccc(F)c1 | > 100 µM (inactive) | > 100 µM (inactive) | > 100 µM (inactive) | > 100 µM (inactive) | > 100 µM (inactive) | > 100 µM (inactive) | > 100 µM (inactive) | – | > 100 µM (inactive) | > 100 µM (inactive) | > 100 µM (inactive) | > 100 µM (inactive) | > 100 µM (inactive) | > 100 µM (inactive) | > 100 µM (inactive) | > 100 µM (inactive) | > 100 µM (inactive) | > 100 µM (inactive) | > 100 µM (inactive) | > 100 µM (inactive)
Cc1nc(C)c(N2CCN(C#N)CC2)c(O)n1 | > 100 µM (inactive) | > 100 µM (inactive) | > 100 µM (inactive) | > 100 µM (inactive) | > 100 µM (inactive) | > 100 µM (inactive) | > 100 µM (inactive) | > 100 µM (inactive) | > 100 µM (inactive) | > 100 µM (inactive) | – | > 100 µM (inactive) | > 100 µM (inactive) | > 100 µM (inactive) | > 100 µM (inactive) | > 100 µM (inactive) | > 100 µM (inactive) | – | > 100 µM (inactive) | 0.0442 µM (active)
Cn1c(=O)c2c(nc3n(Cc4ccccc4)c(=O)c(Br)cn23)n(C)c1=O | > 100 µM (inactive) | > 100 µM (inactive) | > 100 µM (inactive) | > 100 µM (inactive) | > 100 µM (inactive) | > 100 µM (inactive) | > 100 µM (inactive) | – | > 100 µM (inactive) | > 100 µM (inactive) | > 100 µM (inactive) | > 100 µM (inactive) | > 100 µM (inactive) | 80.5 µM (inactive) | > 100 µM (inactive) | > 100 µM (inactive) | > 100 µM (inactive) | > 100 µM (inactive) | > 100 µM (inactive) | > 100 µM (inactive)
O=C1/C(=C/c2ccccc2O)N=C(c2ccccc2)N1c1nc2ccccc2s1 | 36.6 µM (inactive) | 25.5 µM (inactive) | 21.1 µM (inactive) | 19.1 µM (inactive) | 27.3 µM (inactive) | – | 11.2 µM (inactive) | 23.4 µM (inactive) | 32.7 µM (inactive) | 29.9 µM (inactive) | 51.4 µM (inactive) | 13.7 µM (inactive) | 23.7 µM (inactive) | 18.6 µM (inactive) | 7.73 µM (inactive) | – | – | 9.18 µM (inactive) | – | 21.4 µM (inactive)
